Article PMC12594171, “DKK3-LRP1 complex and a chemical inhibitor regulate Aβ clearance in models of Alzheimer’s disease” (Science Advances, 2025)

Biological target: low-density lipoprotein receptor-related protein 1 (LRP1), minireceptor mLRPIV (Homo sapiens, UniProt Q07954)
Assay: SPR (Biacore T200, mLRPIV immobilized on CM5 chip); also inhibits DKK3 binding to mLRPIV by SPR, IC50 […]

Sequence of low-density lipoprotein receptor-related protein 1 (LRP1), minireceptor mLRPIV (Q07954 3331-3778 limits assumed): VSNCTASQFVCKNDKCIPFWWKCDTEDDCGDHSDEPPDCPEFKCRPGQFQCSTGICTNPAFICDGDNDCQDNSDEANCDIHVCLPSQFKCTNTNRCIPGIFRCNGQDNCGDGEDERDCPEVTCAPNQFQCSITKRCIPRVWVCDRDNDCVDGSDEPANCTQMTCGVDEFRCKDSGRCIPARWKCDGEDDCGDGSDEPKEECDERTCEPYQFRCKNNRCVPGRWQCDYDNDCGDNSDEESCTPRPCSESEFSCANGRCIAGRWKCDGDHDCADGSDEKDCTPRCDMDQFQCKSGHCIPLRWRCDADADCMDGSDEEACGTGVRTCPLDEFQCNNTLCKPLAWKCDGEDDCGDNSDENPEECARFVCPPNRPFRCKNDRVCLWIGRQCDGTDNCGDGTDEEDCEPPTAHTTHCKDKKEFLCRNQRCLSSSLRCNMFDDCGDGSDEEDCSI

- Kd: 7.9 µM
SMILES: Cc1nn(-c2ccc(F)cc2)c(C)c1CNC1CCN(C2CC2)CC1 [SJ-300]
